One assay addresses Plasma kallikrein (Homo sapiens, UniProt P03952). Briefly: In Vitro Enzyme Inhibition of hPK: A 10 mM solution of the test compound was made in DMSO. […] A control tube containing only DMSO is included. […] 50 μL was removed from this mixture and placed into duplicate wells on a Microfluor 1Black U-bottom microtiter plate (Thermo Scientific). This plate was incubated for 5 minutes at 37° C. To each well, 50 μL of pre-warmed 2×PFR-AMC was added to start the enzymatic reaction. Cleavage of PFR-AMC was monitored in a Biotek Synergy H4 reader set at 37° C. Readings are taken every 43 seconds for 1 hour. […] The IC50 is calculated using the Gen5 (Biotek Instruments).

The nature of assay [1]: In Vitro Contact Cellular Assay: The test compounds at various concentrations, also prepared by serial dilutions as described above, are added to the test wells. The volume of test compound added to each test well was 12.5 μL, to yield final concentrations of 20 μM, 5 μM, 1.25 μM, 312.5 nM, 78.125 nM, 19.531 nM, 4.883 nM, 1.221 nM, 0.305 nM, and 0.076 nM. Each test compound concentration was tested in duplicates.In addition to the inhibitor control and test wells, the 96 well assay plate includes positive control wells which contained the mixture of human plasma and ellagic acid without C1NH inhibitor or test compounds, and background wells which contained neither the mixture of human plasma and ellagic acid nor the test compounds. The total volume of liquid in positive control and background wells was brought up to 35 μL, using the assay buffer.The assay plate containing C1NH inhibitors and test compounds mixed with human plasma and ellagic acid and appropriate controls was incubated at 37° C. for 5 min. A 10 mM stock solution of substrate Z-FR-2-AMC was diluted to 133.2 μM in the assay buffer, and 15 μL of the diluted substrate was added to each well, to yield a final substrate concentration of 40 μM in each well. The reagents were mixed well by shaking the plate gently for 30 sec.The enzyme reaction was quantified by immediate kinetic reading of the assay plate using excitation/emission wavelengths of 330 nm/440 nm respectively. Fluorescence intensity was recorded for 60 min, using a time interval of 43 sec.The inhibition activity of the test compounds were evaluated using the EC50 values, calculated according to the dose-response curve of the test compounds, fitted using the log(inhibitor)−response (variable slope)¿ equation in GraphPadPrism software (GraphPad Software, Inc.).

Plasma kallikrein, sequence (P03952 20-390 limits assumed): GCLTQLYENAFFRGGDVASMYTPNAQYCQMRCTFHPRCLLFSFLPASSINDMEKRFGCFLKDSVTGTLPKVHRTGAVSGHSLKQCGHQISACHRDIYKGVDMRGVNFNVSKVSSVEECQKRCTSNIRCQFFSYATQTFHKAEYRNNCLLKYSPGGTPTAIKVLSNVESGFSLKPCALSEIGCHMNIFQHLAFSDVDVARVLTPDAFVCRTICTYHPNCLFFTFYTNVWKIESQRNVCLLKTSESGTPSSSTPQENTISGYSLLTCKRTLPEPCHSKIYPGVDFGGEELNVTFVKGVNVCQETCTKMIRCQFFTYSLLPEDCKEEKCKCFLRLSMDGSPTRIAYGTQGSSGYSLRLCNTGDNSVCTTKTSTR
Plasma kallikrein, sequence (P03952 391-638 limits assumed): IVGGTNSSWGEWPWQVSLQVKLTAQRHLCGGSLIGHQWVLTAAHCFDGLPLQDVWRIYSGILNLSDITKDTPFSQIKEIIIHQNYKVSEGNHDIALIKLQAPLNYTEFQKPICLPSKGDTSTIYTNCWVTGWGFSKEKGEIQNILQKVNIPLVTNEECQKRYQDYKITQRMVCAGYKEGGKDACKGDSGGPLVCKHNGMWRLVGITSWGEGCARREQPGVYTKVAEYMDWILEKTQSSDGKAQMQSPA

Broadly, the IC50 is the concentration that inhibits the measured activity by half. A word on the EC50: it is the concentration needed to bring the measured effect to its halfway point. As to `Cc1nc(N)ccc1CNC(=O)c1ccnc(Cc2ccc3ncc(C4CC4)cc3c2)c1`, the half-inhibitory concentration (IC50) on Plasma kallikrein was less than 100 nM. Further, the concentration for a half-maximal effect (EC50) in assay [1] is less than 100 nM.
For `Cc1nc2c(cc1CNC(=O)c1ccnc(Cc3ccc4ncc(Cl)cc4c3)c1)CNC2`, the IC50 at Plasma kallikrein is greater than 10000 nM.
On to `Cc1cc(C(=O)NCc2c(C)cc(N)nc2C)cc(Cc2ccc3ncc(Cl)cc3c2)n1`, for which the concentration giving a half-maximal response (EC50) in assay [1] was less than 100 nM.
Still for that read-out and setting: the result for `Cc1cc(N)nc(C)c1CNC(=O)c1cc(Cc2ccc3ncc(Cl)cc3c2)nc(C(N)=O)c1` reads “in the range around 550 nM”.
`Cc1cc(N)nc(C)c1CNC(=O)c1ccnc(Cc2cccc(-c3noc(=O)[nH]3)c2)c1`: the IC50 on Plasma kallikrein was greater than 10000 nM.
Still for that read-out and setting: the result for `Nc1nccc2cc(CNC(=O)c3ccnc(Cc4ccc5ncc(N6CCCC6)cc5c4)c3)ccc12` reads less than 100 nM.
With `Cc1cc(N)nc(C)c1CNC(=O)c1ccnc(Cc2ccc3ncc(CC(F)F)cc3c2)c1`, on Plasma kallikrein, the concentration for half-maximal inhibition (IC50) was less than 100 nM. In addition, in assay [1], the EC50 is less than 100 nM.
Turning to `Nc1nccc2cc(CNC(=O)c3ccnc(Cc4ccc5ncc(Cl)cc5c4)c3)ccc12`, the EC50 in assay [1] is less than 100 nM.
